For 7 molecules, IC50 and R/S results are on record in patent US20110098180A1, “Herbicide-Resistant Plants, And Polynucleotides And Methods For Providing Same” (United States Department of Agriculture, priority 2002, published 2011).

For test [1], the target named is hydrilla PDS Arg^304 → Threonine, His-tagged (Hydrilla verticillata, UniProt Q66PY0, R304T). The test can be described thus: Cross-resistance testing, His-tagged column-purified PDS (Table 2A). Type of test: biochemical. The following applies: Threonine at 304; His-tagged, column-purified PDS; read-out: I50. From the text: (§1) In further cross-resistance testing similar to that described above, an alternative production and purification protocol was used in the preparation of the mutant PDS proteins, and the activity of the proteins was again tested using the same testing protocol. The alternative approach utilized His-tagging and column purification of the mutant PDS protins. The results are shown in. Table 2A below.
(§2) The plasmid pHy4ATG5 was made by cloning the Phytoene Desaturase (pds) gene from Hydrilla verticillata, including 323 by upstream of the beginning of the putative mature protein, into the vector TOPO4 (Invitrogen, Carlsbad, Calif.): The 1-323 by region contained three potential start codons (ATG)(positions 1, 114 and 225 bp) in frame with pds. In order to express pds in bacteria, deletion clones were made for each of the three potential start codons with and without ATG. Only the results for possible origins of translation 1 and 225 by (named ORF and 3ORF) are reported here. pds was PCR amplified and subcloned into TOPO4 using pHy4ATG5 as template and the reverse primer RPDS—1849 (5′[…] 3′). The forward primers used were ORF (5′ […] 3′), ORF-ATG (5′ […] 3′), 3_ORF (5′[…] 3′) and 3_ORF-ATG (5′ […] 3′). The resulting plasmids were named pORF, pORF-ATG (minus ATG codon), p3ORF and p3ORF-ATG. The pds-containing EcoRI-fragments of these plasmids were subcloned into the EcoRI site of pRSETb vector (Invitrogen) for Histidine tagging and bacterial expression. The resulting constructs were pHy4SET, pHy4SET-ATG (minus ATG), p3ORFSET and p3ORFSET-ATG.
(§3) Plasmid p3ORF-ATG was later mutagenized at the amino acid 304 of pds to replace the amino acid Arginine (Arg) by Histidine (His), Threonine (Thr), Serine (Ser), or Cysteine (Cys), using the QuickChange™ Site-Directed Mutagenesis Kit of Stratagene (La Jolla, Calif.). Primers used to replace Arg by His were Hyd-His-For (5′[…] 3′) and Hyd-His-Rev (5′ […] 3′); to replace Arg by Thr we used primers Hyd-Thr-For (5′[…] 3′) and Hyd-Thr-Rev (5′[…] 3′); to replace Arg by Ser we used Hyd-Ser-For (5′[…] 3′) and Hyd-Ser-Rev (5′[…] 3′); and Arg was replaced by Cys using Hyd-Cys-For (5′[…] 3′) and Hyd-Cys-Rev (5′[…] 3′). Resulting plasmids were named: p3ORFHisSet-ATG, p3ORFThrSet-ATG, p3ORFSerSet-ATG and p3ORFCysSet-ATG.
(§4) All pRSET derived constructs were transformed into BL21(DE3)pLysS cells (Invitrogen), induced with IPTG for protein expression, and the His tag overproduced proteins analyzed by Western blot using Anti-HisG antibody (Invitrogen, cat. #R940-25).
(§5) When working with His-tagged PDS proteins expressed as described in Example 4, the purified protein used for testing was prepared as follows. BL21(DE3)pLysS cells were grown overnight in 500 ml Luria Broth (LB) supplemented with carbenicillin (100 mg/l) and cloramphenicol (60 mg/l) at 37° C., and induced with 0.3 mM isopropylthio-β-D-galactoside (IPTG) for 3 hrs. Cells were lysed using a French press (Spectronics Instrument) at 20,000 psi and overexpressed PDS was purified on a nickel activated Hitrap Chelating HP column according to the manufacturers instructions (Amersham Bioscience).
(§6) Generally, PDS protein fractions prepared as described above (Non-His-tagged and His-tagged) were mixed with a soluble fraction from phytoene-producing E. coli cells. For the phytoene producing cells, a plasmid construct containing the genes GGPP synthase and phytoene synthase from Erwinia uredovora, transformed into the appropriate E. coli strain, was used (see, Misawa et al., J. of Bacteriology 177:6575, 1995). This E. coli strain was separately cultured and lysed, and its soluble components collected (“the EB extract”) in a fashion similar to that described above for the PDS-producing cells.
(§7) His-tagged, purified proteins prepared as described above were transferred to the assay buffer on a PD10 column (Amersham Bioscience) and the concentration was adjusted to 100 μg/mL. […]

In test [2] the test system is hydrilla PDS Arg^304 → Threonine, His-tagged. Described as above. The note with it: Threonine at 304 relative to Arginine; Table 2A. Format: biochemical, Hydrilla verticillata.
Text: as §1, §2, §3, §4, §5, §6, §7

pIC50: −log10 of the molar value.

Chain of hydrilla PDS Arg^304 → Threonine, His-tagged (Hydrilla verticillata, UniProt Q66PY0, R304T) (Q66PY0 77-580 R304T): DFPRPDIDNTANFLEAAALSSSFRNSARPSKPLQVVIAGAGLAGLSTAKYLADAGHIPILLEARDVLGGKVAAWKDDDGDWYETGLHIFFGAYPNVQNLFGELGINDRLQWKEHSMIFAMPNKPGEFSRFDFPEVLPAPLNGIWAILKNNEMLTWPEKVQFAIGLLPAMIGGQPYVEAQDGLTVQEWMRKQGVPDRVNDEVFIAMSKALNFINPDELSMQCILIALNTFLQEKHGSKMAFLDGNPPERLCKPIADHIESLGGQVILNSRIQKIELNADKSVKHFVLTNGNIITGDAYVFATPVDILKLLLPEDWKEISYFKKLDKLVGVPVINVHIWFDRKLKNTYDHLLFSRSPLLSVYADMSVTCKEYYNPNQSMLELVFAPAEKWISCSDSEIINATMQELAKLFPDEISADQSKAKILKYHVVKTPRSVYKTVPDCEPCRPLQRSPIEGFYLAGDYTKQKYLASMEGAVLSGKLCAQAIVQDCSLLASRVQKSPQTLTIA

For the molecule `CCC(Oc1ccc(F)c(C(F)(F)F)c1)C(=O)NCc1ccccc1` (stereo not shown) [Beflubutamid], the pIC50 in test [1] is 3.97. Besides, in test [2], the R/S was 1.5. In the same order, the values of `O=C(Nc1ccc(F)cc1F)c1cccnc1Oc1cccc(C(F)(F)F)c1` [Diflufenican] are 3.98 and 1.0. For `O=C1C(Cl)C(CCl)CN1c1cccc(C(F)(F)F)c1` (stereo not shown) [Fluorochloridone], in that order: 3.68 and 1.6. For `CNC1=C(c2cccc(C(F)(F)F)c2)C(=O)C(c2ccccc2)O1` (stereo not shown) [Flurtamone], in that order: 2.75 and 5.9. For the molecule `CNc1cnn(-c2cccc(C(F)(F)F)c2)c(=O)c1Cl` [Norflurazon], the pIC50 in test [1] was 2.82. Moreover, the R/S in test [2] turned out to be 30.0. For `O=C(Nc1ccc(F)cc1)c1cccc(Oc2cccc(C(F)(F)F)c2)n1` [Piconilafen, Picolinafen], in that order: 4.22 and 0.2. Fluridone returned a R/S in test [2] of 7.8.
